Measurements from patent publication US20230295564A1, “Galectin-9 Specific Binding Agents for Use in Treating Cancer” (Emory University, priority 2020, published 2023).
Like-named read-outs stand apart in the source and are kept apart here.

Columns and labels:
[1] = system: human B-ALL cell lines; assay: Annexin-V/PI cell death of human B-ALL cell lines pre-conditioned with RPMI, SCM or ACM
Procedure: Human B-ALL cell lines (Nalm6, REH,) were cultured for 24 hours in unconditioned medium (RPMI), stromal cell-conditioned medium (SCM), or adipocyte-conditioned medium (ACM) and then treated with anti-GAL-9 antibody (αGAL-9 Ab) or an IgG control antibody (IgG ctrl) for an additional 2 days with or without MTX. The percentage of apoptotic and dead cells on day 3 of culture was determined using Annexin-V/ PI staining followed by flow cytometric analysis.
Thus, additional experiments were performed to determine how adipocyte-conditioned medium (ACM)-exposed B-ALL cells responded to chemotherapy treatment. In obese patients, leukemia cells would be exposed to an adipocyte-rich microenvironment prior to chemotherapy administration. To mimic this scenario in vitro, human B-ALL cell lines were pre-treated for 24 hours with unconditioned medium (RPMI), stromal cell-conditioned medium (SCM), or ACM prior to the addition of methotrexate (MTX) for 2 days.

[2] = system: mB-ALL cell cultures; assay: ACM-induced chemoresistance in mB-ALL cell cultures; type: cell-based, murine
[3] = system: murine BCR-ABL+ Arf-/- B-ALL (mB-ALL); conditions: for survival: once weekly from day 7, MTX 0.75 mg/kg, αGAL-9 Ab 1.5 mg/kg
Procedure: Lean and obese mice were inoculated intravenously with murine Bcr-Abl+ Arf-/- B-ALL cells (mB-ALL). On day 7 post-inoculation, when GFP+ leukemic blasts were detected in the peripheral blood, treatment with DMSO (Vehicle, n=10), 0.75 mg/kg methotrexate (MTX, n=10), 1.5 mg/kg anti-galectin-9 antibody (αGAL-9 Ab, n=10), or (MTX + αGAL-9 Ab) a combined was initiated. Treatments were administered once weekly. Survival was monitored and significance was determined using the log-rank test with “A” representing a statistically significant difference between vehicle and MTX-treated mice, “B” between vehicle and anti-Gal-9 treated groups, and “C” between vehicle and MTX + anti-Gal-9 treated mice.
A murine BCR-ABL+ Arf-/- B-ALL (mB-ALL) model was used to test whether treatment with anti-GAL-9 antibody could be used as a therapy to treat obese mice with B-ALL. […] C57BL/6 mice were maintained on lean and high-fat diets as previously described and then challenged with mB-ALL. Treatment with vehicle, MTX, anti-GAL-9 antibody, or a combination of MTX and anti-GAL-9 antibody was initiated on day 7 after leukemia inoculation, when GFP+ B-ALL cells were detected in the peripheral blood.

| Structure (SMILES) | decrease of MTX-induced cell death ([1]; cultures pre-treated with ACM) | MTX-induced cell death, effect of pre-conditioning ([1]; pre-conditioning with SCM) | chemoresistance induced by ACM [2] | survival ([3]; lean mice) | weight loss ([3]; obese mice) | survival ([3]; obese mice) | resistance induced by exposure to ACM [1] |
| --- | --- | --- | --- | --- | --- | --- | --- |
| CN(Cc1cnc2nc(N)nc(N)c2n1)c1ccc(C(=O)N[C@@H](CCC(=O)O)C(=O)O)cc1 [MTX, methotrexate] | 40-70% | not impacted | induced chemoresistance | significantly extended the survival | loss substantial weight | not significantly protected | – |
| COc1cccc2c1C(=O)c1c(O)c3c(c(O)c1C2=O)C[C@@](O)(C(=O)CO)C[C@@H]3O[C@H]1C[C@H](N)[C@H](O)[C@H](C)O1 [doxorubicin] | – | – | induced chemoresistance | – | – | – | induced resistance |
| CC[C@]1(O)C[C@H]2CN(CCc3c([nH]c4ccccc34)[C@@](C(=O)OC)(c3cc4c(cc3OC)N(C=O)[C@H]3[C@@](O)(C(=O)OC)[C@H](OC(C)=O)[C@]5(CC)C=CCN6CC[C@]43[C@@H]65)C2)C1 [vincristine] | – | – | – | – | – | – | induced resistance |
